The target in one assay is T1, reverse transcriptase (Human immunodeficiency virus type 1 group M subtype B, UniProt P04585).
T1 construct: negative control (batch without reverse transcriptase); purchased Roche Diagnostics GmbH, Mannheim, Germany
Put plainly: Biochemical reverse transcriptase assay (Reverse Transcriptase Assay, colorimetric, Roche). The following applies: colorimetric RT assay, DMSO 1%. The procedure:
The “Reverse Transcriptase Assay, colorimetric” (Roche Diagnostics GmbH, Mannheim, Germany) is used according to manufacturers' instructions. The test substances are dissolved in DMSO and used in diluted form in the test in the five steps (DMSO final concentration: 1%). The resulting values of the photometric analysis (405/492 nm) are smaller than 0.1 in the negative control (batch without reverse transcriptase) and are in the range of 1.5 in the positive control (batch without test substance). The IC50 values of the test substances are determined as the concentration of the test substance dilution, in which the measured optical density is 50% of the positive control.

For a further assay, the system named is HIV-1NL4-3 Wild Type. Put plainly: Luminescence reduction assay, MT4 cells infected with HIV-1NL4-3 luciferase reporter virus, wild type. The assay is classed as cell-based. The following applies: Human immunodeficiency virus 1, MT4, MT4 cells, 2% FCS. The method, boiled down:
(§1)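 MT4 cells pellet-infected 2 h at 37° C with HIV-1NL4-3 reporter virus (lu164 replacing nef; wild type or site-directed RT mutants), washed, then incubated with compound dilutions (1% DMSO, 2% or 10% FCS) for 5 days. Secreted luciferase read with coelenterazine buffer; EC50 = concentration halving RLU versus untreated infected cells.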
(Reporter assays use an easily measured gene product as a stand-in for the process of interest.)

In a further assay the test system is HIV-1NL4-3 K103N-Y181C. Put plainly: Luminescence reduction assay, MT4 cells infected with HIV-1NL4-3 luciferase reporter virus, RT mutant K103N-Y181C. The assay is classed as cell-based. The following applies: Human immunodeficiency virus 1, MT4, read-out: EC50 (μM) MT4 Cells HIV-1NL4-3 K103N-Y181C 2% FCS, MT4 cells, HIV-1NL4-3 K103N-Y181C, 2% FCS. The method, boiled down:
as §1

A further assay concerns HIV-1LAI Wild Type. As to the kind of experiment: AlamarBlue viability assay, HIV-1LAI-infected MT4 cells. The assay is classed as cell-based. The following applies: Human immunodeficiency virus 1, MT4, MT4 cells, 10% FCS. The method, boiled down:
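MT4 cells infected with HIV-1LAI (MOI 0.01, supernatant infection) cultured 5 days at 37 °C with compounds in RPMI with 2% or 10% FCS, 1% DMSO final. AlamarBlue fluorescence after 3 h; EC50 as 50% protection relative to uninfected cells, CC50 from high-concentration cytotoxicity.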
(In general: Alamar Blue is a resazurin reagent that responds to reducing activity.)

Regarding `O=C1CN(C(=O)c2cc(-c3cc(Br)cc(OC(F)(F)F)c3)n(-c3cccnc3)n2)CN1` [Example 28, 1-({5-[3-Bromo-5-(trifluoromethoxy)phenyl]-1-(pyridin-3-yl)-1H-pyrazol-3-yl}carbonyl)imidazolidin-4-one], at reverse transcriptase, the IC50 (commonly the concentration that gives 50% inhibition) amounted to 213 nM. Besides, the EC50 – broadly, the concentration that produces a half-maximal response – was 0.005 µM in the assay on HIV-1NL4-3 Wild Type, 0.005 µM in the assay with HIV-1NL4-3 K103N-Y181C and 0.044 µM in the assay on HIV-1LAI Wild Type.

Turning to `O=C1CN(C(=O)c2cc(-c3cc(Br)cc(OC(F)(F)F)c3)n(-c3ccnc(Cl)c3)n2)CCN1` [Example 49, 4-({5-[3-Bromo-5-(trifluoromethoxy)phenyl]-1-(2-chloropyridin-4-yl)-1H-pyrazol-3-yl}carbonyl)piperazin-2-one], the IC50 against reverse transcriptase stood at 758 nM. The results for the EC50 with HIV-1NL4-3 Wild Type, in the assay on HIV-1NL4-3 K103N-Y181C and in the assay with HIV-1LAI Wild Type were 0.008 µM, 0.038 µM and 0.23 µM, respectively.

Turning to `O=C1CN(C(=O)c2cc(-c3cc(F)cc(OC(F)(F)F)c3)n(-c3cccnc3)n2)CCN1` [Example 58], at reverse transcriptase, 56 nM corresponded to half-maximal inhibition (IC50). The EC50 stood at 0.204 µM in the assay on HIV-1NL4-3 Wild Type, 1.09 µM in the assay on HIV-1NL4-3 K103N-Y181C and 0.955 µM in the assay with HIV-1LAI Wild Type.

`O=C(c1cc(-c2cc(Cl)cc(OC(F)F)c2)n(-c2cccnc2)n1)N1CCS(=O)(=O)C1` [Example 83, {5-[3-Chloro-5-(difluoromethoxy)phenyl]-1-(pyridin-3-yl)-1H-pyrazol-3-yl}(1,1-dioxido-1,3-thiazolidin-3-yl)methanone] displayed an IC50 against reverse transcriptase of 65 nM. The EC50 in the assay with HIV-1NL4-3 Wild Type came to 0.008 µM; with HIV-1NL4-3 K103N-Y181C, 0.168 µM; in the assay with HIV-1LAI Wild Type, 0.089 µM.

As for `O=C1CN(C(=O)c2cc(-c3cncc(OC(F)F)c3)n(-c3ccc(F)c(Cl)c3)n2)CN1` [Example 105, 1-({1-(3-Chloro-4-fluorophenyl)-5-[5-(difluoromethoxy)pyridin-3-yl]-1H-pyrazol-3-yl}carbonyl)imidazolidin-4-one], the EC50 with HIV-1NL4-3 Wild Type is 0.018 µM; in the assay on HIV-1NL4-3 K103N-Y181C, 0.007 µM; with HIV-1LAI Wild Type it was 0.116 µM.

Turning to `O=C1CN(C(=O)c2cc(-c3cncc(C(F)(F)F)c3)n(-c3ccc(F)c(Cl)c3)n2)CN1` [Example 106, 1-({1-(3-Chloro-4-fluorophenyl)-5-[5-(trifluoromethyl)pyridin-3-yl]-1H-pyrazol-3-yl}carbonyl)imidazolidin-4-one], the EC50 in the assay with HIV-1NL4-3 Wild Type came out at 0.082 µM; with HIV-1NL4-3 K103N-Y181C, 0.12 µM; in the assay with HIV-1LAI Wild Type it was 0.084 µM.

On to `O=C1CN(C(=O)c2cc(-c3cncc(C(F)(F)F)c3)n(-c3ccc(F)c(Cl)c3)n2)CCN1` [Example 107], for which the EC50 in the assay with HIV-1NL4-3 Wild Type amounted to 0.299 µM; in the assay with HIV-1NL4-3 K103N-Y181C it was 1.28 µM; in the assay on HIV-1LAI Wild Type, 0.263 µM.

In the case of `O=C1CN(C(=O)c2cc(-c3cncc(C(F)(F)F)c3)n(-c3cccc(Cl)c3)n2)CN1` [Example 108, 1-({1-(3-Chlorophenyl)-5-[5-(trifluoromethyl)pyridin-3-yl]-1H-pyrazol-3-yl}carbonyl)imidazolidin-4-one], the EC50 with HIV-1NL4-3 Wild Type is 0.052 µM; with HIV-1NL4-3 K103N-Y181C, 0.093 µM; with HIV-1LAI Wild Type, 0.036 µM.

`O=C1CN(C(=O)c2cc(-c3cncc(C(F)(F)F)c3)n(-c3cccc(Cl)c3)n2)CCN1` [Example 109, 4-({1-(3-Chlorophenyl)-5-[5-(trifluoromethyl)pyridin-3-yl]-1H-pyrazol-3-yl}carbonyl)piperazin-2-one]: the EC50 worked out at 0.232 µM with HIV-1NL4-3 Wild Type, 0.768 µM in the assay with HIV-1NL4-3 K103N-Y181C and 0.246 µM in the assay with HIV-1LAI Wild Type.

Turning to `O=C1CN(C(=O)c2cc(-c3cnc(F)c(Cl)c3)n(-c3cccc(Cl)c3)n2)CN1` [Example 110, 1-{[5-(5-Chloro-6-fluoropyridin-3-yl)-1-(3-chlorophenyl)-1H-pyrazol-3-yl]carbonyl}imidazolidin-4-one], the EC50 came to 0.024 µM in the assay on HIV-1NL4-3 Wild Type, 0.039 µM in the assay with HIV-1NL4-3 K103N-Y181C and 0.025 µM in the assay on HIV-1LAI Wild Type.

Regarding `O=C1CN(C(=O)c2cc(-c3cnc(F)c(Cl)c3)n(-c3ccc(F)c(Cl)c3)n2)CN1` [Example 111, 1-{[1-(3-Chloro-4-fluorophenyl)-5-(5-chloro-6-fluoropyridin-3-yl)-1H-pyrazol-3-yl]carbonyl}imidazolidin-4-one], the figures for the EC50 in the assay on HIV-1NL4-3 Wild Type, with HIV-1NL4-3 K103N-Y181C and in the assay on HIV-1LAI Wild Type were 0.03 µM, 0.173 µM and 0.024 µM, respectively.

`O=C1CN(C(=O)c2cc(-c3ccnc(Cl)c3)n(-c3ccc(F)c(Cl)c3)n2)CN1` [Example 112, 1-{[1-(3-Chloro-4-fluorophenyl)-5-(2-chloropyridin-4-yl)-1H-pyrazol-3-yl]carbonyl}imidazolidin-4-one]: the EC50 is 0.016 µM in the assay with HIV-1NL4-3 Wild Type, 0.03 µM in the assay on HIV-1NL4-3 K103N-Y181C and 0.079 µM with HIV-1LAI Wild Type.

For `O=C1CN(C(=O)c2cc(-c3ccnc(Cl)c3)n(-c3ccc(F)c(Cl)c3)n2)CCN1` [Example 113, 4-{[1-(3-Chloro-4-fluorophenyl)-5-(2-chloropyridin-4-yl)-1H-pyrazol-3-yl]carbonyl}piperazin-2-one], the figures for the EC50 with HIV-1NL4-3 Wild Type, with HIV-1NL4-3 K103N-Y181C and in the assay with HIV-1LAI Wild Type were 0.025 µM, 0.298 µM and 0.233 µM, respectively.

For `O=C1CN(C(=O)c2cc(-c3ccnc(Cl)c3)n(-c3cccc(Cl)c3)n2)CN1` [Example 114, 1-{[1-(3-Chlorophenyl)-5-(2-chloropyridin-4-yl)-1H-pyrazol-3-yl]carbonyl}imidazolidin-4-one], the EC50 worked out at 0.007 µM in the assay with HIV-1NL4-3 Wild Type, 0.171 µM in the assay on HIV-1NL4-3 K103N-Y181C and 0.063 µM in the assay on HIV-1LAI Wild Type.

In the case of `O=C1CN(C(=O)c2cc(-c3ccnc(Cl)c3)n(-c3cccc(Cl)c3)n2)CCN1` [Example 115, 4-{[1-(3-Chlorophenyl)-5-(2-chloropyridin-4-yl)-1H-pyrazol-3-yl]carbonyl}piperazin-2-one], the results for the EC50 with HIV-1NL4-3 Wild Type, in the assay on HIV-1NL4-3 K103N-Y181C and in the assay on HIV-1LAI Wild Type were 0.027 µM, 1.09 µM and 0.352 µM, respectively.

On to `O=C1CN(C(=O)c2cc(-c3cc(Br)cc(OC(F)(F)F)c3)n(-c3ccnc(C(F)(F)F)c3)n2)CCN1` [Example 116, 4-({5-[3-Bromo-5-(trifluoromethoxy)phenyl]-1-[2-(trifluoromethyl)pyridin-4-yl]-1H-pyrazol-3-yl}carbonyl)piperazin-2-one], for which the EC50 in the assay with HIV-1NL4-3 Wild Type was 0.648 µM; in the assay on HIV-1NL4-3 K103N-Y181C, 0.896 µM; in the assay on HIV-1LAI Wild Type, > 3.3 µM.

Turning to `O=C(c1cc(-c2cc(Br)cc(OC(F)(F)F)c2)n(-c2ccnc(C(F)(F)F)c2)n1)N1CCSC1` [Example 117, {5-[3-Bromo-5-(trifluoromethoxy)phenyl]-1-[2-(trifluoromethyl)pyridin-4-yl]-1H-pyrazol-3-yl}(1,3-thiazolidin-3-yl)methanone], the EC50 in the assay on HIV-1NL4-3 Wild Type was 1.28 µM; in the assay with HIV-1NL4-3 K103N-Y181C it was ≥ 3.3 µM; in the assay with HIV-1LAI Wild Type it was > 3.3 µM.

(Values after US9296720B2, “Carboxamide-substituted heteroaryl-pyrazoles and the use thereof” (AiCuris GmbH & Co. KG, priority 2011, dated 2016).)
